Laboratory results as given in patent US4853209A, “Bone marrow suppressing agents” (The Dow Chemical Company, priority 1987, dated 1989).
Read-outs that look alike come from different tables or passages of the source.

Key:
bone marrow [1] = settings: normal beagles, various dose levels, weekly blood samples
Method: A series of normal beagles was treated with various dose levels of the composition of Example 7. Blood samples were obtained weekly with white blood cell and platelet counts taken to monitor for signs of bone marrow suppression.

[2] = rabbit, three hours, averaged for 5 rabbits
Method: The composition of Example 7 was also evaluated in rabbits. The rabbits were injected with 100-250 microliters of the composition via a cannula placed in the marginal ear vein.
Three hours after injection, a blood sample was taken by cardiac puncture and the animal was then sacrificed by injection of a commercial euthanasia solution.

[3] = Two hour rat biolocalization of radionuclide compositions (Tables I, II, III); format: in vivo; settings: 2 h, average of five rats; for Bone/Blood Ratio / Bone/Muscle Ratio: from percent dose per gram; for % Dose in Blood / % Dose in Liver / % Dose in Skeleton / % Dose in Urine / % Dose in Muscle: tail vein
Method: A vial is used to prepare the sample for injection. The vial contains 210 mg EDTMP and 140 mg of NaOH such that addition of 6 ml of a 3×10^-4 M Ho-166 solution in 0.1M HCl gave a final pH in the range of 7-8, forming the Ho-166 EDTMP composition. After checking the pH, samples were drawn for injection into Sprague-Dawley rats. Rats were injected with 100 microliters of the solution via a tail vein. Two hours after the injection the rats were killed by cervical dislocation and dissected. The amount of radiation in each tissue was obtained by counting in a NaI well counter and comparing to standards.
The biolocalization of compositions prepared as described in Examples 7, 8, 9 and 10 was determined in rats.
The numbers given in Table I represent the average of the results of five rats per Example.
The biolocalization of the composition prepared as described in Example 12 was determined in rats.
The numbers given in Table II represent the average of the results of testing in three rats.
The biolocalization of compositions prepared as described in Examples 14 and 15 was determined in rats.
The numbers given in Table III represent the average of the results of five rats per Example.

[4] = rat
Method: Quantitative biodistributions in rats are obtained by injecting 50-100 microliters (μl) of the radionuclide composition into the tail vein of unanesthetized laboratory rats. After a given period of time, the rats are sacrificed by cervical dislocation and various organs and tissues removed. The tissue samples are then rinsed, blotted dry and weighed. The radioactivity in the tissue samples are measured using a NaI scintillation counter in order to determine the biolocalization of the radionuclide.
The numbers given for each Example, with respect to Tables I, II and III represent the percentage of the administered dose which localized in the indicated tissue. The ratio of radioactivity observed in bone relative to other organs was calculated based on the percent dose per gram in the bone and in the particular organ.
A series of rats was injected with the composition of Example 7 and sacrificed in groups of five at various intervals.

bone marrow [5] = settings: mouse about 20 g, 198 μCi, six days
Method: A mouse weighing about 20 g is injected with 198 μCi of a Ho-166 EDTMP composition. After six days, the animal is sacrificed and both femurs and the sternum removed. The same bones are also taken from a nontreated animal (control). The tissues are fixed using standard histochemical procedures and decalcified using formic acid. The tissues are embedded in paraffin, three micron sections cut, placed on glass slides, and stained with hematoxilyn and eosin.

O=P(O)(O)CN(CCN(CP(=O)(O)O)CP(=O)(O)O)CP(=O)(O)O.[153Sm] [Example 7]
platelet count (bone marrow [1]): dose dependent reduction | white blood cell count (bone marrow [1]): dose dependent reduction | % Dose in Blood ([2]; marginal ear vein): 0.12 % Dose | % Dose in Liver ([2]; marginal ear vein): 0.95 % Dose | % Dose in Skeleton ([2]; marginal ear vein): 66 % Dose | % Dose in Urine ([2]; marginal ear vein, 180 min): 34 % Dose | Bone/Blood Ratio [2]: 900 | Bone/Muscle Ratio [2]: 1200 | Bone/Blood Ratio [3]: 1800 | Bone/Muscle Ratio [3]: 1500 | % Dose in Blood [3]: 0.032 % Dose | % Dose in Liver [3]: 0.25 % Dose | % Dose in Skeleton [3]: 58 % Dose | % Dose in Urine [3]: 49 % Dose | blood clearance [4]: rapid blood clearance | uptake in bone [4]: rapid uptake in bone | Bone/Blood ([4]; 1 Hr): 120 | Bone/Muscle ([4]; 1 Hr): 300 | Percent of the Administered Dose, Blood ([4]; 1 Hr): 0.5% of the Administered Dose | Percent of the Administered Dose, Kidneys ([4]; 1 Hr): 0.47% of the Administered Dose | Percent of the Administered Dose, Liver ([4]; 1 Hr): 0.32% of the Administered Dose | Percent of the Administered Dose, Skeleton ([4]; 1 Hr): 58% of the Administered Dose | Percent of the Administered Dose, Urine ([4]; 1 Hr): 47% of the Administered Dose | Bone/Blood ([4]; 2 Hrs): 1800 | Bone/Muscle ([4]; 2 Hrs): 1500 | Percent of the Administered Dose, Blood ([4]; 2 Hrs): 0.03% of the Administered Dose | Percent of the Administered Dose, Kidneys ([4]; 2 Hrs): 0.25% of the Administered Dose | Percent of the Administered Dose, Liver ([4]; 2 Hrs): 0.25% of the Administered Dose | Percent of the Administered Dose, Skeleton ([4]; 2 Hrs): 58% of the Administered Dose | Percent of the Administered Dose, Urine ([4]; 2 Hrs): 49% of the Administered Dose | Bone/Blood ([4]; 5 Hrs): 4200 | Bone/Muscle ([4]; 5 Hrs): 3600 | Percent of the Administered Dose, Blood ([4]; 5 Hrs): 0.008% of the Administered Dose | Percent of the Administered Dose, Kidneys ([4]; 5 Hrs): 0.36% of the Administered Dose | Percent of the Administered Dose, Liver ([4]; 5 Hrs): 0.37% of the Administered Dose | Percent of the Administered Dose, Skeleton ([4]; 5 Hrs): 59% of the Administered Dose | Percent of the Administered Dose, Urine ([4]; 5 Hrs): 46% of the Administered Dose | Bone/Blood ([4]; 15 Min): 7 | Bone/Muscle ([4]; 15 Min): 30 | Percent of the Administered Dose, Blood ([4]; 15 Min): 5.9% of the Administered Dose | Percent of the Administered Dose, Kidneys ([4]; 15 Min): 1.745% of the Administered Dose | Percent of the Administered Dose, Liver ([4]; 15 Min): 0.96% of the Administered Dose | Percent of the Administered Dose, Skeleton ([4]; 15 Min): 48% of the Administered Dose | Percent of the Administered Dose, Urine ([4]; 15 Min): 28% of the Administered Dose | Bone/Blood ([4]; 24 Hrs): 6700 | Bone/Muscle ([4]; 24 Hrs): 2400 | Percent of the Administered Dose, Blood ([4]; 24 Hrs): 0.007% of the Administered Dose | Percent of the Administered Dose, Kidneys ([4]; 24 Hrs): 0.25% of the Administered Dose | Percent of the Administered Dose, Liver ([4]; 24 Hrs): 0.35% of the Administered Dose | Percent of the Administered Dose, Skeleton ([4]; 24 Hrs): 52% of the Administered Dose | Percent of the Administered Dose, Urine ([4]; 24 Hrs): 55% of the Administered Dose | Bone/Blood ([4]; 30 Min): 20 | Bone/Muscle ([4]; 30 Min): 70 | Percent of the Administered Dose, Blood ([4]; 30 Min): 2.3% of the Administered Dose | Percent of the Administered Dose, Kidneys ([4]; 30 Min): 0.805% of the Administered Dose | Percent of the Administered Dose, Liver ([4]; 30 Min): 0.53% of the Administered Dose | Percent of the Administered Dose, Skeleton ([4]; 30 Min): 53% of the Administered Dose | Percent of the Administered Dose, Urine ([4]; 30 Min): 42% of the Administered Dose | Bone/Blood ([4]; 48 Hrs): 8200 | Bone/Muscle ([4]; 48 Hrs): 2800 | Percent of the Administered Dose, Blood ([4]; 48 Hrs): 0.006% of the Administered Dose | Percent of the Administered Dose, Kidneys ([4]; 48 Hrs): 0.29% of the Administered Dose | Percent of the Administered Dose, Liver ([4]; 48 Hrs): 0.46% of the Administered Dose | Percent of the Administered Dose, Skeleton ([4]; 48 Hrs): 60% of the Administered Dose | Percent of the Administered Dose, Urine ([4]; 48 Hrs): 50% of the Administered Dose | Bone/Blood ([4]; 72 Hrs): 7800 | Bone/Muscle ([4]; 72 Hrs): 3400 | Percent of the Administered Dose, Blood ([4]; 72 Hrs): 0.006% of the Administered Dose | Percent of the Administered Dose, Kidneys ([4]; 72 Hrs): 0.22% of the Administered Dose | Percent of the Administered Dose, Liver ([4]; 72 Hrs): 0.49% of the Administered Dose | Percent of the Administered Dose, Skeleton ([4]; 72 Hrs): 57% of the Administered Dose | Percent of the Administered Dose, Urine ([4]; 72 Hrs): 53% of the Administered Dose | clearance of the radioactivity from the skeletal system ([4]; throughout the course of the experiment): no significant clearance of the radioactivity from the skeletal system

O=P(O)(O)CN(CCN(CP(=O)(O)O)CP(=O)(O)O)CCN(CP(=O)(O)O)CP(=O)(O)O.[153Sm] [Example 8]
Bone/Blood Ratio [3]: 224 | Bone/Muscle Ratio [3]: 220 | % Dose in Blood [3]: 0.16 % Dose | % Dose in Liver [3]: 0.27 % Dose | % Dose in Skeleton [3]: 30 % Dose | % Dose in Urine [3]: 74 % Dose

O=P(O)(O)CN(CCO)CCN(CP(=O)(O)O)CP(=O)(O)O.[153Sm] [Example 9]
Bone/Blood Ratio [3]: 1300 | Bone/Muscle Ratio [3]: 1300 | % Dose in Blood [3]: 0.035 % Dose | % Dose in Liver [3]: 0.45 % Dose | % Dose in Skeleton [3]: 57 % Dose | % Dose in Urine [3]: 50 % Dose

O=P(O)(O)CN(CCN(CCN(CP(=O)(O)O)CP(=O)(O)O)CCN(CP(=O)(O)O)CP(=O)(O)O)CP(=O)(O)O.[153Sm] [Example 10]
Bone/Blood Ratio [3]: 80 | Bone/Muscle Ratio [3]: 410 | % Dose in Blood [3]: 0.25 % Dose | % Dose in Liver [3]: 0.18 % Dose | % Dose in Skeleton [3]: 28 % Dose | % Dose in Urine [3]: 65 % Dose

O=P(O)(O)CN(CCN(CP(=O)(O)O)CP(=O)(O)O)CP(=O)(O)O.[166Ho] [Example 12]
suppression of the marrow (bone marrow [5]): suppression of the marrow | density of hemapoetic stem cells in marrow (bone marrow [5]; vs nontreated control): significantly lower density of hemapoetic stem cells | number of red blood cells in marrow (bone marrow [5]; vs nontreated control): significantly higher number of red blood cells

O=P(O)(O)CN(CCN(CP(=O)(O)O)CP(=O)(O)O)CP(=O)(O)O.[159Gd] [Example 14]
Bone/Blood Ratio [3]: 305 | Bone/Muscle Ratio [3]: 577 | % Dose in Blood [3]: 0.15 % Dose | % Dose in Liver [3]: 0.25 % Dose | % Dose in Muscle [3]: 0.56 % Dose | % Dose in Skeleton [3]: 57 % Dose

O=P(O)(O)CN(CCO)CCN(CP(=O)(O)O)CP(=O)(O)O.[159Gd] [Example 15]
Bone/Blood Ratio [3]: 335 | Bone/Muscle Ratio [3]: 548 | % Dose in Blood [3]: 0.14 % Dose | % Dose in Liver [3]: 0.57 % Dose | % Dose in Muscle [3]: 0.76 % Dose | % Dose in Skeleton [3]: 60 % Dose
